Data taken from paper PMC6222425, “Novel 5′-Norcarbocyclic Derivatives of Bicyclic Pyrrolo- and Furano[2,3-d]Pyrimidine Nucleosides” (Molecules : A Journal of Synthetic Chemistry and Natural …, 2018).
Where two headings read alike, the source gives them in different places.

Columns and labels:
[1] = tested on: KB-3-1 (human epidermoid carcinoma) cells; assay: Cell viability analysis by MTT assay, KB-3-1; assay type: cell-based; details: for IC50: Homo sapiens, KB 3-1, 48 h, MTT, 48 h incubation, read-out: Antiproliferative activity, IC50, KB-3-1; for Selectivity index, KB-3-1: ratio of IC50 on normal hFF3 cells to IC50 of KB-3-1
Method: (§1) The target compounds were tested on different lines of tumor cells, HuTu-80 (human duodenal cancer), B16 (mouse melanoma), A549 (human lung adenocarcinoma), KB-3-1 (human squamous cell carcinoma), HeLa (human squamous cell carcinoma of the cervix), as well as on human noncancer cells hFF3.
(§2) Human KB-3-1 epidermoid carcinoma cell line, human HeLa cervical epithelioid carcinoma cell line, human HuTu-80 duodenal cancer cells, human A549 lung carcinoma epithelial cells, mouse B16 melanoma cell line and human hFF3 fibroblast cells were obtained from the Russian Cell Culture Collection (St. Petersburg, Russia) and were cultured in DMEM (hFF3 cells in IMDM) supplemented with 10% (v/v) heat-inactivated fetal bovine serum, penicillin (100 U mL^−1), streptomycin (100 µg mL^−1) and amphotericin ([…]). Cells were maintained in a humidified atmosphere of 5% CO2 at 37 °C.
(§3) All compounds were dissolved in dimethylsulfoxide (DMSO) and stock solutions (10 mmol L^−1) were stored at −20 °C.
(§4) Cells growing in the logarithmic phase were seeded in triplicate in 96-well plates at a density of 5 × 10^3 cells per well for HeLa and HuTu-80 cells, 7 × 10^3 cells per well for KB-3-1 and hFF3, 10 × 10^3 for A549 and 20 × 10^3 for B16. The plates were incubated at 37 °C in a humidified 5% CO2 atmosphere. Cells were allowed to adhere to the surface for 24 h and then tested compounds were added at different concentrations and incubation was continued for 48 h. Then [3-(4,5-dimethylthiazol-2-yl)-2,5-diphenyltetrazolium bromide] (MTT) solution (10 µL, 5 mg mL^−1) was added to each well and the incubation was continued for an additional 3 h. The dark blue formazan crystals formed within the healthy cells were solubilized with DMSO and the absorbance was measured using a Multiscan RC plate reader at 570 nm. The IC50 was determined as the compound concentration required to decrease the A570 to 50% compared to the control (no tested compounds, DMSO) and was determined by interpolation from dose-response curves.

[2] = tested on: HeLa (human cervical epithelioid carcinoma) cells; assay: Cell viability analysis by MTT assay, HeLa; assay type: cell-based; details: for IC50: Homo sapiens, HeLa, MTT, 48 h incubation, read-out: Antiproliferative activity, IC50, HeLa; for Selectivity index, HeLa: ratio of IC50 on normal hFF3 cells to IC50 of HeLa
Method: as §1, §2, §3, §4

[3] = tested on: HuTu-80 (human duodenal cancer) cells; assay: Cell viability analysis by MTT assay, HuTu-80; assay type: cell-based; details: for IC50: Homo sapiens, HuTu80, MTT, 48 h incubation, read-out: Antiproliferative activity, IC50, HuTu80; for Selectivity index, HuTu80: ratio of IC50 on normal hFF3 cells to IC50 of HuTu80
Method: as §1, §2, §3, §4

tumor cells = assay: Cell viability MTT assay, statements on the tumor cell panel as a whole; assay type: cell-based; details: for Toxic effect on tumor cells: concentrations up to 100 μM
Method: as §1, §2, §4

[4] = tested on: human noncancer cells hFF3 (fibroblasts); assay: Cell viability analysis by MTT assay, normal hFF3 cells; assay type: cell-based; details: for IC50: Homo sapiens, HFF-3, 48 h, normal cells, MTT, 48 h incubation, read-out: Antiproliferative activity, IC50, hHFF3; for Toxic effect on normal hFF3 cells: concentrations up to 100 μM
Method: as §1, §2, §3, §4

[5] = tested on: B16 (mouse melanoma) cells; assay: Cell viability analysis by MTT assay, B16; assay type: cell-based; details: for IC50: MTT, 48 h incubation, read-out: Antiproliferative activity, IC50, B16; for Selectivity index, B16: ratio of IC50 on normal hFF3 cells to IC50 of B16
Method: as §1, §2, §3, §4

[6] = tested on: A549 (human lung adenocarcinoma) cells; assay: Cell viability analysis by MTT assay, A549; assay type: cell-based; details: for IC50: Homo sapiens, A549, MTT, 48 h incubation, read-out: Antiproliferative activity, IC50, A549; for Selectivity index, A549: ratio of IC50 on normal hFF3 cells to IC50 of A549
Method: as §1, §2, §3, §4

KB-3-1 cells [7] = assay: Mitochondria depolarization analysis, JC-1 staining, flow cytometry; assay type: cell-based, human; details: 20 µM, KB-3-1, control 0.1% DMSO
Text: We next investigated whether 3i utilizes the mitochondrial ‘intrinsic’ pathway in the apoptotic death of KB-3-1 cells, since the pivotal role of mitochondria in triggering apoptosis is well established. We evaluated the mitochondrial transmembrane potential (∆Ψm) in KB-3-1 cells exposed to 3i using cytofluorometric analysis. Cells were stained with the specific mitochondrial cationic dye JC-1 (5,5′,6,6′-tetrachloro-1,1′,3,3′-tetraethyl benzimidazole carbocyanine iodide) that accumulates in the transmembrane space of polarized mitochondria and forms the so–called «J–aggregates», emitting red fluorescence. A decrease in ∆Ψm results in disappearance of J–aggregates and formation of JC-1 monomers, which emit in a green fluorescence.
Mitochondria involvement in apoptosis was measured by mitochondrial depolarization occurring early during onset of apoptosis. KB-3-1 cells were incubated with 3i (5, 10 and 20 µM) or 0.1% (v/v) DMSO as a control for 48 h. Then, cells were collected and incubated in complete media in the dark with mitochondrial potential sensor JC-1 (5 µg mL^−1) at 37 °C for 30 min, washed with cold PBS and resuspended in PBS (400 µL). Fluorescences of J–aggregate and J–monomer were recorded in the fluorescence channels 2 (FL2) and 1 (FL1), respectively, with flow cytometer «FC500». […]

KB-3-1 cells [8] = assay: Apoptosis detection by Annexin V/PI staining, flow cytometry; assay type: cell-based, human; details: 48 h
Method: To examine whether the tested 5′-norcarbocyclic derivatives induce cell death via apoptosis Annexin V and propidium iodide analysis were used (Figure 1). […] Annexin V binds phosphatidylserine residues, which are asymmetrically distributed toward the inner plasma membrane, and migrate to the outer plasma membrane during apoptosis.
Exponentially growing KB-3-1 cells in 6–well plates (5 × 10^5 cells per well) were treated with 3i (5, 10 and 20 µM) or with 0.1% (v/v) DMSO as a control for 48 h. The cells were stained with Annexin V-FITC and propidium iodide by the Annexin-FITC apoptosis staining/detection kit (Abcam) according to the instruction of the manufacturer. Briefly, cells were collected by scrapping, washed twice with cold PBS, and centrifuged (400 g, 5 min). Cells were resuspended in binding buffer (500 µL) and Annexin V–FITC (5 µL) and PI (5 µL) were added. Cells were incubated for 5 min at 20 °C in the dark. Finally, binding buffer (300 µL) was added to each tube, and the amount of apoptotic cells in samples were analyzed by flow cytometry. For each sample, 10,000 ungated events were acquired. Annexin V + PI − cells represent the early apoptotic populations. Annexin V + PI + cells represent either late apoptotic or secondary necrotic populations.

| SMILES | IC50 [1] [µM] | IC50 [2] [µM] | IC50 [3] [µM] | Toxic effect on tumor cells (tumor cells) | IC50 [4] [µM] | Toxic effect on normal hFF3 cells [4] | IC50 ([5]; Mus musculus, 48 h) [µM] | IC50 [6] [µM] | Red fluorescence value (JC-1 J-aggregates) as compared to the control (KB-3-1 cells [7]) | Selectivity index, KB-3-1 [1] | Selectivity index, HeLa [2] | Selectivity index, HuTu80 [3] | Selectivity index value (tumor cells; depending on the nature and origin of tumor cells) | Apoptotic cells (KB-3-1 cells [8]; 5 µM) [%] | Apoptotic cells (KB-3-1 cells [8]; 20 µM) [%] | IC50 [5] [µM] | Selectivity index, B16 [5] | Selectivity index, A549 [6] |
| --- | --- | --- | --- | --- | --- | --- | --- | --- | --- | --- | --- | --- | --- | --- | --- | --- | --- | --- |
| CCCCCc1cc2cn(C3C=CC(O)C3)c(=O)nc2o1 (centres unmarked) [Compound 3b, 1-(4′-Hydroxy-2′-cyclopenten-1′-yl)-6-pentyl-3H-furano[2,3-d]-pyrimidine-2-one] | > 100 | > 100 | > 100 | no toxic effect | > 100 | no toxic effect | > 100 | > 100 | – | – | – | – | – | – | – | – | – | – |
| CCCCCc1ccc(-c2cc3cn(C4C=CC(O)C4)c(=O)nc3o2)cc1 (centres unmarked) [Compound 3i, 1-(4′-Hydroxy-2′-cyclopenten-1′-yl)-6-(4-pentylphenyl)-3H-furano[2,3-d]-pyrimidine-2-one] | 8.2 ± 1.3 | 6.5 ± 0.9 | 5.1 ± 0.6 | – | > 100 | not toxic | 21 | 47.5 ± 5.8 | decrease | >12.2 | >15.3 | >19.6 | 15–20 | 26 | 55.3 | 21.3 ± 2.9 | >4.7 | >2.1 |
| CCCc1cc2cn(C3C=CC(O)C3)c(=O)nc2[nH]1 (centres unmarked) [Compound 4a, 1-(4′-Hydroxy-2′-cyclopenten-1′-yl)-6-propyl-3H-pyrrolo[2,3-d]-pyrimidine-2-one] | > 100 | > 100 | > 100 | no toxic effect | > 100 | no toxic effect | > 100 | > 100 | – | – | – | – | – | – | – | – | – | – |
| CCCCCc1ccc(-c2cc3cn(C4C=CC(O)C4)c(=O)nc3[nH]2)cc1 (centres unmarked) [Compound 4i, 1-(4′-Hydroxy-2′-cyclopenten-1′-yl)-6-(4-pentylphenyl)-3H-pyrrolo[2,3-d]-pyrimidine-2-one] | 9.8 ± 0.7 | 11.1 ± 0.9 | 8.5 ± 1.1 | – | 21.9 ± 4.8 | – | 13.4 ± 3.2 | 15.6 ± 4.1 | – | 2.2 | 1.9 | 2.6 | – | – | – | – | 1.6 | 1.4 |
| CCCCCCCCCCc1cc2cn(C3CC(O)C(O)C3O)c(=O)nc2o1 (centres unmarked) [Compound 5, 1-(2′,3′,4′-Trihydroxycyclopent-1′-yl)-6-decyl-3H-furano[2,3-d]-pyrimidine-2-one] | 50.3 ± 9.8 | 70.2 ± 8.9 | > 100 | – | > 100 | not toxic | > 100 | > 100 | – | >2 | >1.4 | – | – | – | – | – | – | – |
